Experimental data taken from patent US20250206701A1.
Values joined by “and” are separate entries in the source; they are usually repeats but may differ in a detail not shown here. Equal values may be shown once. “Also recorded” adds a separate entry of the source.

Legend:
5-HT2A receptor = target: T1, 5-HT2A receptor (Mus musculus, UniProt P35363); test: Drug-induced Head Twitch Response (HTR) in mice; assay type: in vivo, C57BL/6-Elite mice; settings: 1 mg/kg i.p.; for Head Twitch Response (HTR): 15-to-30-minute window post-drug, relative to vehicle
T1 construct: tissue Charles River; host or cells: living C57BL/6-Elite mice (brain, in vivo)
T1 sequence (P35363 whole entry): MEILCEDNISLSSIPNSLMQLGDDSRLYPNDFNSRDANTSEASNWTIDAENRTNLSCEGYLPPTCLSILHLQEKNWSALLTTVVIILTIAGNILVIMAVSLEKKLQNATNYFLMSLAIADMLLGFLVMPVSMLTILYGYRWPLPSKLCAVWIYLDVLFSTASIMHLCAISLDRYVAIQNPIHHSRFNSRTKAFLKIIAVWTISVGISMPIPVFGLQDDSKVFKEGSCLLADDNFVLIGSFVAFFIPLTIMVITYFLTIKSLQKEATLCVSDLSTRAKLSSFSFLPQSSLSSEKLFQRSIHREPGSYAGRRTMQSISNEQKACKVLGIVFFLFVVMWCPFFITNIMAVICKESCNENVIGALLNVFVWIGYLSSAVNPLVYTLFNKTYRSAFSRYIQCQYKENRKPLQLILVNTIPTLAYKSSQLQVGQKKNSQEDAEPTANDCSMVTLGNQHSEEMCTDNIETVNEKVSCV

[1] = Mouse PK study: plasma parent compound and psilocin metabolite after dosing of the labelled compound; settings: for Plasma concentration of E(VI) / AUC0-tlast/Dose of E(VI) / Plasma concentration of psilocybin: 1 mg/kg i.v.
[2] = In vitro metabolic stability / psilocin release assays (liver, intestinal, serum fractions, buffer)
AVPR1A = AVPR1A (Homo sapiens, UniProt P37288); test: SAFETYscan calcium secondary messenger assay, AVPR1A; assay type: cell-based
Chain of AVPR1A (P37288 whole entry): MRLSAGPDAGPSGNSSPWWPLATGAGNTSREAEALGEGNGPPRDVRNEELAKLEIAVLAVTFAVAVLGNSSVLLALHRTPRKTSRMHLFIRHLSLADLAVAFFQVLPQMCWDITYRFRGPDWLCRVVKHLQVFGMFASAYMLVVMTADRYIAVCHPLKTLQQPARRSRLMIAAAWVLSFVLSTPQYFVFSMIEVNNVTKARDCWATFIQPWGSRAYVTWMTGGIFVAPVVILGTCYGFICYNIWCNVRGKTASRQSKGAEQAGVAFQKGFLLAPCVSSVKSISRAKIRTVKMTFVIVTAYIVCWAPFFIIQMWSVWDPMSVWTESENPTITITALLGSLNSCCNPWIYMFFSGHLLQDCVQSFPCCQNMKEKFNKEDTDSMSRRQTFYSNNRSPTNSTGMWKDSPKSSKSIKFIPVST

5-HT1A receptor = target: T2, 5-HT1A receptor (Homo sapiens, UniProt P08908); test: cAMP-Glo assay of 5-HT1A receptor modulation in CHO-K1/5-HT1A/Ga15 cells; assay type: cell-based; settings: +5-HT1A vs −5-HT1A cells, 4 mM forskolin, increasing ligand concentrations
T2 construct: host or cells: CHO-K1 (co-expressing Ga15)
T2 sequence (P08908 1-422): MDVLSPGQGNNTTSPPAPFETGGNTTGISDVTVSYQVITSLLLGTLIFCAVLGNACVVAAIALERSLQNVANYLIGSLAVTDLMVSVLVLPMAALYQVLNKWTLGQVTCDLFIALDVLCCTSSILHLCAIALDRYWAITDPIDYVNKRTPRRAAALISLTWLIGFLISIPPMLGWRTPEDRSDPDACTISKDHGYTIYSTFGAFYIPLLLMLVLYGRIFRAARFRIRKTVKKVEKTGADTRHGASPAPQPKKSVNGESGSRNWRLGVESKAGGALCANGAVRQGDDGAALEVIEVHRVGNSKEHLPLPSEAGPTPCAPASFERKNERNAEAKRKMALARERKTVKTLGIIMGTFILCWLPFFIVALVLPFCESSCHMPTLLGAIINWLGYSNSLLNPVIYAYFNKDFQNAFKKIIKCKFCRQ

MAO-A = target: T3, MAO-A (Homo sapiens, UniProt P21397); test: SAFETYscan MAO-A enzyme assay; assay type: biochemical
T3 construct: purchased Sigma
T3 sequence (P21397 1-527): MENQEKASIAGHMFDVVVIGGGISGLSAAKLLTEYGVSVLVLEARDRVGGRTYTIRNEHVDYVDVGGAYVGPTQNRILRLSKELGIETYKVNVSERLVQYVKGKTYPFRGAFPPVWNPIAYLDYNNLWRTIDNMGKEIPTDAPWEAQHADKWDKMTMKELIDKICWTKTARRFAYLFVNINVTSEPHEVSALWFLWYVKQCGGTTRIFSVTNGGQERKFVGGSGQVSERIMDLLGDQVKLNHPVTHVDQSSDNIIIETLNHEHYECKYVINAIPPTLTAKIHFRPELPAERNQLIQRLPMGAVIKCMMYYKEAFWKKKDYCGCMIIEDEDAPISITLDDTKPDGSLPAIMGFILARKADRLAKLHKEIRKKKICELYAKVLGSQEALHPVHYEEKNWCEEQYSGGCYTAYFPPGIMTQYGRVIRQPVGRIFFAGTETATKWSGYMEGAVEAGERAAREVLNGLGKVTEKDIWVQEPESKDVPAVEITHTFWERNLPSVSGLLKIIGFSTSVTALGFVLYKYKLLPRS

[3] = 3 mg/kg oral, 24 h, individual mice, BLQ = below 0.2 ng/mL
[4] = oral doses, any dose / timepoint

CN(C)CCc1c[nH]c2cccc(OC(=O)OCc3ccccc3)c12 [B(II)]
Head Twitch Response (HTR) (5-HT2A receptor): elicit head twitching
detection of parent compound in plasma after oral administration ([1]; 1 mg/kg oral): neither B(II) nor E(VI) were detected in plasma
Plasma concentration of psilocin ([1]; 1 mg/kg oral, 0.25 h, mean ± SD): 19.7 ± 5.50 ng/mL
Plasma concentration of psilocin ([1]; 1 mg/kg oral, 0.5 h, mean ± SD): 11.9 ± 2.03 ng/mL
Plasma concentration of psilocin ([1]; 1 mg/kg oral, 1 h, mean ± SD): 4.63 ± 0.788 ng/mL
Plasma concentration of psilocin ([1]; 1 mg/kg oral, 2 h, mean ± SD): 2.20 ± 0.850 ng/mL
Plasma concentration of psilocin ([1]; 1 mg/kg oral, 4 h, mean ± SD): 2.05 ± 0.359 ng/mL
Plasma concentration of psilocin ([1]; 1 mg/kg oral, 6 h, mean ± SD): 0.739 ± 0.288 ng/mL
Plasma concentration of psilocin ([1]; 1 mg/kg oral, 8 h, mean ± SD): 0.453 ± 0.0460 ng/mL
Cmax/Dose of psilocin ([1]; 1 mg/kg oral, dose of administered compound used, mean ± SD): 19.7 ± 5.50 kg·ng/mL/mg
Plasma concentration of psilocin ([1]; 3 mg/kg oral, 0.25 h, mean ± SD): 55.6 ± 8.67 ng/mL
Plasma concentration of psilocin ([1]; 3 mg/kg oral, 0.5 h, mean ± SD): 32.3 ± 4.98 ng/mL
Plasma concentration of psilocin ([1]; 3 mg/kg oral, 1 h, mean ± SD): 9.29 ± 3.05 ng/mL
Plasma concentration of psilocin ([1]; 3 mg/kg oral, 2 h, mean ± SD): 7.67 ± 0.921 ng/mL
Plasma concentration of psilocin ([1]; 3 mg/kg oral, 4 h, mean ± SD): 6.76 ± 2.13 ng/mL
Plasma concentration of psilocin ([1]; 3 mg/kg oral, 6 h, mean ± SD): 2.41 ± 0.845 ng/mL
Plasma concentration of psilocin ([1]; 3 mg/kg oral, 8 h, mean ± SD): 0.722 ± 0.368 ng/mL
AUC0-tlast/Dose of psilocin ([1]; 3 mg/kg oral, dose of administered compound used, mean ± SD): 20.3 ± 2.78 kg·ng·h/mL/mg
time parent compound resides in plasma post-dosing ([1]; 10 mg/kg oral): up to 4 hours
Plasma concentration of psilocin ([1]; 10 mg/kg oral, 0.25 h, mean ± SD): 306 ± 34.6 ng/mL
Plasma concentration of psilocin ([1]; 10 mg/kg oral, 0.5 h, mean ± SD): 125 ± 16.3 ng/mL
Plasma concentration of psilocin ([1]; 10 mg/kg oral, 1 h, mean ± SD): 49.6 ± 10.5 ng/mL
Plasma concentration of psilocin ([1]; 10 mg/kg oral, 2 h, mean ± SD): 20.7 ± 1.42 ng/mL
Plasma concentration of psilocin ([1]; 10 mg/kg oral, 4 h, mean ± SD): 31.4 ± 6.34 ng/mL
Plasma concentration of psilocin ([1]; 10 mg/kg oral, 6 h, mean ± SD): 11.5 ± 1.43 ng/mL
Plasma concentration of psilocin ([1]; 10 mg/kg oral, 8 h, mean ± SD): 6.38 ± 2.98 ng/mL
Cmax/Dose of psilocin ([1]; 10 mg/kg oral, dose of administered compound used, mean ± SD): 30.6 ± 3.46 kg·ng/mL/mg
psilocin levels / exposure compared with E(VI)-treated mice ([1]; oral dosing, Tables 16 and 17): higher psilocin levels
dissociation to psilocin ([2]; HLM, HLS9, HIM, HIS9, AB serum, buffer control (any conditions)): did not readily dissociate to psilocin under any conditions

CN(C)CCc1c[nH]c2cccc(OC(=O)SCc3ccccc3)c12 [E(VI)]
Head Twitch Response (HTR) (5-HT2A receptor): Elevated incidences of HTR; also recorded: elicit head twitching
HTR of E(VI) compared to B(II) (5-HT2A receptor; side-by-side (FIG. 4F)): elevated response
IC50 (AVPR1A): > 10 µM
5-HT1A receptor modulation (change in % cAMP) (5-HT1A receptor): mild receptor modulation at higher ligand concentrations
Plasma concentration of E(VI) ([1]; 5 min, individual mice, concentrations not considered accurate): 3.20 ng/mL and 59.0 ng/mL and 11.1 ng/mL
Plasma concentration of E(VI) ([1]; 5 min, mean ± SD, concentrations not considered accurate): 24.4 ± 30.2 ng/mL
Plasma concentration of E(VI) ([1]; 0.25 h, individual mice, concentrations not considered accurate): 72.1 ng/mL and 110 ng/mL and 7.79 ng/mL
Plasma concentration of E(VI) ([1]; 0.25 h, mean ± SD, concentrations not considered accurate): 63.3 ± 51.7 ng/mL
Plasma concentration of E(VI) ([1]; 0.5 h, individual mice, concentrations not considered accurate): 13.1 ng/mL and 9.29 ng/mL and 1.03 ng/mL
Plasma concentration of E(VI) ([1]; 0.5 h, mean ± SD, concentrations not considered accurate): 7.81 ± 6.17 ng/mL
Plasma concentration of E(VI) ([1]; 1 h, individual mice, concentrations not considered accurate): 3.14 ng/mL and 5.84 ng/mL and No Peak
Plasma concentration of E(VI) ([1]; 1 h, mean, concentrations not considered accurate): 4.49 ng/mL
Plasma concentration of E(VI) ([1]; 2 h, individual mice, values below LLOQ 1 ng/mL included): 0.776 ng/mL and 0.594 ng/mL and No Peak
Plasma concentration of E(VI) ([1]; 2 h, mean, concentrations not considered accurate): 0.685 ng/mL
Plasma concentration of E(VI) ([1]; 4 h, individual mice, BLQ = below 1 ng/mL): BLQ (2×) and No Peak
Plasma concentration of E(VI) ([1]; 6 h, individual mice, BLQ = below 1 ng/mL): No Peak (2×) and BLQ
Plasma concentration of E(VI) ([1]; 8 h, individual mice): No Peak
AUC0-tlast/Dose of E(VI) ([1]; individual mice): 20.4 kg·ng·h/mL/mg and 35.2 kg·ng·h/mL/mg and 3.40 kg·ng·h/mL/mg
AUC0-tlast/Dose of E(VI) ([1]; mean ± SD): 19.7 ± 15.9 kg·ng·h/mL/mg
detection of parent compound in plasma after oral administration ([1]; 1 mg/kg oral): neither B(II) nor E(VI) were detected in plasma
Plasma concentration of psilocin ([1]; 1 mg/kg oral, 8 h, individual mice, BLQ = below 0.2 ng/mL): BLQ
Plasma concentration of psilocin [1, 3]: No Peak (2×) and BLQ
Plasma concentration of psilocin ([1]; 10 mg/kg oral, 24 h, individual mice, BLQ = below 0.2 ng/mL): BLQ
detection of parent compound in plasma after oral administration [1, 4]: did not yield any detectable levels of E(VI); also recorded: never detected at any timepoint
IC50 (MAO-A): > 10 µM

CN(C)CCc1c[nH]c2cccc(O)c12 [psilocin]
5-HT1A receptor modulation (change in % cAMP) (5-HT1A receptor): reduction in cAMP levels

CN(C)CCc1c[nH]c2cccc(OP(=O)(O)O)c12 [psilocybin]
Plasma concentration of psilocybin ([1]; 0.5 h, individual mice, No Peak = no detectable compound by LC-MS): No Peak and 2.35 ng/mL and 6.21 ng/mL
Plasma concentration of psilocybin ([1]; 0.5 h, mean): 4.28 (n = 2) ng/mL
Plasma concentration of psilocybin ([1]; 1 h, individual mice, No Peak = no detectable compound by LC-MS): No Peak (2×) and 1.21 ng/mL
Plasma concentration of psilocybin ([1]; 1 h, mean): 1.21 (n = 1) ng/mL
Plasma concentration of psilocybin ([1]; 2 h, individual mice, No Peak = no detectable compound by LC-MS): No Peak
Plasma concentration of psilocybin ([1]; 4 h, individual mice, No Peak = no detectable compound by LC-MS): No Peak
Plasma concentration of psilocybin ([1]; 6 h, individual mice, No Peak = no detectable compound by LC-MS): No Peak
Plasma concentration of psilocybin ([1]; 8 h, individual mice, No Peak = no detectable compound by LC-MS, bolded value considered an outlier): No Peak (2×) and 2.54 ng/mL
Plasma concentration of psilocin ([1]; 1.56 mg/kg oral, 24 h, individual mice, BLQ = below 0.2 ng/mL): BLQ
Plasma concentration of psilocin [1, 3]: BLQ
detection of parent compound in plasma after oral administration [1, 4]: not detectable in orally administered animals at any dose
stability ([2]; assay buffer (enzyme-free control)): stability of psilocybin was confirmed in assay buffer
stability and conversion to psilocin ([2]; liver fractions (HLM, HLS9)): stable in liver fractions with no conversion to psilocin

NCCc1c[nH]c2ccc(O)cc12 [serotonin]
5-HT1A receptor modulation (change in % cAMP) (5-HT1A receptor): reduction in cAMP levels

N[C@@H](Cc1c[nH]c2ccccc12)C(=O)O [tryptophan]
5-HT1A receptor modulation (change in % cAMP) (5-HT1A receptor): no reduction in cellular cAMP levels
